From US11807644B2 (PMV Pharmaceuticals, Inc., priority 2020, dated 2023)

The compounds below were run against T1, recombinant His-tag Y220C p53 DBD protein (Homo sapiens, UniProt P04637, Y220C) (assay: In vitro DNA binding activity assay (TR-FRET): binding of His-tag Y220C p53 DBD to biotin-labeled consensus DNA). Details: SC150 = concentration to increase DNA binding by […], His-tag Y220C p53 DBD, biotin-labeled consensus DNA.
T1 construct: recombinant His-tag Y220C p53 DBD protein (amino acids #˜94-312)
Assay type: biochemical

SMILES	Y220C SC150 (μM)
CN1CC[C@@H](Nc2cccc3c2cc(-c2noc(CNC(=O)[C@H]4C[C@@H](C)C4)n2)n3CC(F)(F)F)[C@@H](F)C1 [Compound 223B, (1r,3s)-N-{[3-(4-{[(3S,4R)-3-fluoro-1-methylpiperidin-4-yl]amino}-1-(2,2,2-trifluoroethyl)-1H-indol-2-yl)-1,2,4-oxadiazol-5-yl]methyl}-3-methylcyclobutane-1-carboxamide]	* (* = 0 μM ≤ SC150 < 0.1 μM)
CN1CC[C@@H](Nc2cccc3c2cc(-c2noc(CNC(=O)c4cnn(C5CCCC5OCCF)c4)n2)n3CC(F)(F)F)[C@@H](F)C1 (stereo in doubt) [Compound 377B, N-{[3-(4-{[(3S,4R)-3-fluoro-1-methylpiperidin-4-yl]amino}-1-(2,2,2-trifluoroethyl)-1H-indol-2-yl)-1,2,4-oxadiazol-5-yl]methyl}-1-[(1R,2R)-2-(2-fluoroethoxy)cyclopentyl]-1H-pyrazole-4-carboxamide]	* (* = 0 μM ≤ SC150 < 0.1 μM)
CN1CC[C@@H](Nc2cccc3c2cc(-c2noc(CNC(=O)c4csc(CN5CCCC5)c4)n2)n3CC(F)(F)F)[C@@H](F)C1 [Compound 466B]	* (* = 0 μM ≤ SC150 < 0.1 μM)
CN1CC[C@@H](Nc2cccc3c2cc(-c2noc(CNC(=O)c4ccn(C5(CO)CC5)c4)n2)n3CC(F)(F)F)[C@@H](F)C1 [Compound 472B, N-{[3-(4-{[(3S,4R)-3-fluoro-1-methylpiperidin-4-yl]amino}-1-(2,2,2-trifluoroethyl)-1H-indol-2-yl)-1,2,4-oxadiazol-5-yl]methyl}-1-[1-(hydroxymethyl)cyclopropyl]-1H-pyrrole-3-carboxamide]	* (* = 0 μM ≤ SC150 < 0.1 μM)
CN1CC[C@@H](Nc2cccc3c2cc(-c2noc(CNC(=O)c4cnc(N(C)C)s4)n2)n3CC(F)(F)F)[C@@H](F)C1 [Compound 432B, 2-(dimethylamino)-N-{[3-(4-{[(3S,4R)-3-fluoro-1-methylpiperidin-4-yl]amino}-1-(2,2,2-trifluoroethyl)-1H-indol-2-yl)-1,2,4-oxadiazol-5-yl]methyl)-1,3-thiazole-5-carboxamide]	* (* = 0 μM ≤ SC150 < 0.1 μM)
CN1CC[C@@H](Nc2cccc3c2cc(-c2noc(CNC(=O)[C@@H]4C[C@H]4c4ccccn4)n2)n3CC(F)(F)F)[C@@H](F)C1 [Compound 226B, (1R,2R)-N-{[3-(4-{[(3S,4R)-3-fluoro-1-methylpiperidin-4-yl]amino}-1-(2,2,2-trifluoroethyl)-1H-indol-2-yl)-1,2,4-oxadiazol-5-yl]methyl}-2-(pyridin-2-yl)cyclopropane-1-carboxamide]	* (* = 0 μM ≤ SC150 < 0.1 μM)
CN1CCC(Nc2cccc3c2cc(-c2nnc(CNC(=O)[C@@H]4C[C@H]4C(=O)O)s2)n3CC(F)(F)F)CC1 (racemic) [Compound 76B, (+/−)-(1R,2R)-2-{[(5-{4-[(1-methylpiperidin-4-yl)amino]-1-(2,2,2-trifluoroethyl)-1H-indol-2-yl}-1,3,4-thiadiazol-2-yl)methyl]carbamoyl}cyclopropane-1-carboxylic acid]	* (* = 0 μM ≤ SC150 < 0.1 μM)
COc1ccc(C(=O)NCc2nnc(-c3cc4c(N[C@H]5CCN(C)C[C@H]5F)cccc4n3CC(F)(F)F)o2)cc1 (racemic) [Compound 117B, (+/−)-N-{[5-(4-{[(3R,4S)-3-fluoro-1-methylpiperidin-4-yl]amino}-1-(2,2,2-trifluoroethyl)-1H-indol-2-yl)-1,3,4-oxadiazol-2-yl]methyl}-4-methoxybenzamide]	** (** = 0.1 μM ≤ SC150 < 0.5 μM)
CN1CC[C@@H](Nc2cccc3c2cc(-c2noc(CNC(=O)c4ccc5[nH]ccc5c4)n2)n3CC(F)(F)F)[C@@H](F)C1 [Compound 258B, N-{[3-(4-{[(3S,4R)-3-fluoro-1-methylpiperidin-4-yl]amino}-1-(2,2,2-trifluoroethyl)-1H-indol-2-yl)-1,2,4-oxadiazol-5-yl]methyl}-1H-indole-5-carboxamide]	* (* = 0 μM ≤ SC150 < 0.1 μM)
COCC(C)(C)c1cc(C(=O)NCc2nc(-c3cc4c(N[C@@H]5CCOC[C@@H]5F)cccc4n3CC(F)(F)F)no2)cs1 [Compound 508B, N-{[3-(4-{[(3R,4R)-3-fluorooxan-4-yl]amino}-1-(2,2,2-trifluoroethyl)-1H-indol-2-yl)-1,2,4-oxadiazol-5-yl]methyl}-5-(1-methoxy-2-methylpropan-2-yl)thiophene-3-carboxamide]	* (* = 0 μM ≤ SC150 < 0.1 μM)
CN1CC[C@@H](Nc2cccc3c2cc(-c2noc(CNC(=O)[C@H]4C[C@@H]4C#N)n2)n3CC(F)(F)F)[C@@H](F)C1 (racemic) [Compound 193B, (1RS,2RS)-2-cyano-N-{[3-(4-{[(3S,4R)-3-fluoro-1-methylpiperidin-4-yl]amino}-1-(2,2,2-trifluoroethyl)-1H-indol-2-yl)-1,2,4-oxadiazol-5-yl]methyl}cyclopropane-1-carboxamide]	* (* = 0 μM ≤ SC150 < 0.1 μM)
CN1CC[C@@H](Nc2cccc3c2cc(-c2noc(CNC(=O)c4ccn(C(C)(C)C)c4)n2)n3CC(F)(F)F)[C@@H](F)C1 [Compound 194B, 1-tert-butyl-N-{[3-(4-{[(3S,4R)-3-fluoro-1-methylpiperidin-4-yl]amino}-1-(2,2,2-trifluoroethyl)-1H-indol-2-yl)-1,2,4-oxadiazol-5-yl]methyl}-1H-pyrrole-3-carboxamide]	* (* = 0 μM ≤ SC150 < 0.1 μM)
CN1CC[C@@H](Nc2cccc3c2cc(-c2noc(CNC(=O)c4cncn4-c4ccccc4)n2)n3CC(F)(F)F)[C@@H](F)C1 [Compound 309B, N-{[3-(4-{[(3S,4R)-3-fluoro-1-methylpiperidin-4-yl]amino)-1-(2,2,2-trifluoroethyl)-1H-indol-2-yl)-1,2,4-oxadiazol-5-yl]methyl}-1-phenyl-1H-imidazole-5-carboxamide]	* (* = 0 μM ≤ SC150 < 0.1 μM)
CN1CC[C@@H](Nc2cccc3c2cc(-c2noc(CNC(=O)c4ccn(CCF)c4)n2)n3CC(F)(F)F)[C@@H](F)C1 [Compound 205B, N-{[3-(4-{[(3S,4R)-3-fluoro-1-methylpiperidin-4-yl]amino}-1-(2,2,2-trifluoroethyl)-1H-indol-2-yl)-1,2,4-oxadiazol-5-yl]methyl}-1-(2-fluoroethyl)-1H-pyrrole-3-carboxamide]	* (* = 0 μM ≤ SC150 < 0.1 μM)
CC(C)(C)n1ccc(C(=O)NCc2nc(-c3cc4c(N[C@@H]5CCN(C6CC6)C[C@@H]5F)cccc4n3CC(F)(F)F)no2)c1 [Compound 330B, 1-tert-butyl-N-{[3-(4-{[(3S,4R)-1-cyclopropyl-3-fluoropiperidin-4-yl]amino}-1-(2,2,2-trifluoroethyl)-1H-indol-2-yl)-1,2,4-oxadiazol-5-yl]methyl}-1H-pyrrole-3-carboxamide]	* (* = 0 μM ≤ SC150 < 0.1 μM)
C[C@H]1C[C@H]1C(=O)NCc1nc(-c2cc3c(NC4CCN(C)CC4)cccc3n2CC(F)(F)F)no1 (racemic) [Compound 158B, (+/−)-(1R,2S)-2-methyl-N-[(3-{4-[(1-methylpiperidin-4-yl)amino]-1-(2,2,2-trifluoroethyl)-1H-indol-2-yl}-1,2,4-oxadiazol-5-yl)methyl]cyclopropane-1-carboxamide]	* (* = 0 μM ≤ SC150 < 0.1 μM)
CN1CCC(Nc2cccc3c2cc(-c2noc(CNC(=O)C4CC4)n2)n3CC(F)(F)F)C1 (racemic) [Compound 169B, (+/−)-N-[(3-{4-[(1-methylpyrrolidin-3-yl)amino]-1-(2,2,2-trifluoroethyl)-1H-indol-2-yl}-1,2,4-oxadiazol-5-yl)methyl]cyclopropanecarboxamide]	* (* = 0 μM ≤ SC150 < 0.1 μM)
CO[C@H]1CCCC[C@@H]1n1cc(C(=O)NCc2nc(-c3cc4c(N[C@@H]5CCN(C)C[C@@H]5F)cccc4n3CC(F)(F)F)no2)cn1 (relative stereo) [Compound 385B]	* (* = 0 μM ≤ SC150 < 0.1 μM)
CN1CCC(Nc2cccc3c2cc(-c2nnc(CNC(=O)c4cc[nH]c4)s2)n3CC(F)(F)F)CC1 [Compound 78B, N-[(5-{4-[(1-methylpiperidin-4-yl)amino]-1-(2,2,2-trifluoroethyl)-1H-indol-2-yl}-1,3,4-thiadiazol-2-yl)methyl]-1H-pyrrole-3-carboxamide]	* (* = 0 μM ≤ SC150 < 0.1 μM)
CN1CC[C@@H](Nc2cccc3c2cc(-c2noc(CNC(=O)c4csc(N5CCCC5)n4)n2)n3CC(F)(F)F)[C@@H](F)C1 [Compound 460B, N-{[3-(4-{[(3S,4R)-3-fluoro-1-methylpiperidin-4-yl]amino}-1-(2,2,2-trifluoroethyl)-1H-indol-2-yl)-1,2,4-oxadiazol-5-yl]methyl}-2-(pyrrolidin-1-yl)-1,3-thiazole-4-carboxamide]	* (* = 0 μM ≤ SC150 < 0.1 μM)
CN1CC[C@@H](Nc2cccc3c2cc(-c2noc(CNC(=O)c4csc(C5(C)CCOCC5)n4)n2)n3CC(F)(F)F)[C@@H](F)C1 [Compound 474B, N-{[3-(4-{[(3S,4R)-3-fluoro-1-methylpiperidin-4-yl]amino}-1-(2,2,2-trifluoroethyl)-1H-indol-2-yl)-1,2,4-oxadiazol-5-yl]methyl}-2-(4-methyloxan-4-yl)-1,3-thiazole-4-carboxamide]	* (* = 0 μM ≤ SC150 < 0.1 μM)
COCC(C)(C)n1cc(C(=O)NCc2nc(-c3cc4c(N[C@H]5CCN(C(C)(C)C)C[C@H]5F)cccc4n3CC(F)(F)F)no2)cn1 [Compound 413B, N-{[3-(4-{[(3R,4S)-1-tert-butyl-3-fluoropiperidin-4-yl]amino}-1-(2,2,2-trifluoroethyl)-1H-indol-2-yl)-1,2,4-oxadiazol-5-yl]methyl}-1-(1-methoxy-2-methylpropan-2-yl)-1H-pyrazole-4-carboxamide]	* (* = 0 μM ≤ SC150 < 0.1 μM)
